Experimental data as given in US20220175734A1, “USING PARASYMPATHOMIMETIC DRUGS ALONE OR, IN COMBINATION WITH ONE OR MORE ALPHA AGONISTS IN PSEUDOPHAKIC PATIENTS, TO CREATE MULTI-FOCALITY” (Visus Therapeutics, Inc., priority 2019, published 2022).
“And” between values parts separate entries of the source, which are not always exact repeats. Equal entries are not always repeated.

What was measured:
[1] = system: naturally emmetropic and presbyopic subjects; test: Example 13 crossover trial: pupil size (Colvard infrared pupilometer) (Table 13); type: in vivo, human; details: for PS 1-h / PS 2-h / PS 4-h / PS 8-h / PS Pre-treatment: mean pupil size, ten subjects; for PS Pre-treatment: before treatment
Description: (§1) Participants were randomly selected volunteers. […] None of the patients included in the study had received any topical medication that could cause pupil mydriasis or miosis. […] All procedures followed were in accordance with the ethical standards of the responsible committee on human experimentation.
(§2) The 3% carbachol drops included 50 ppm of benzalkonium chloride.

[2] = system: naturally emmetropic and presbyopic subjects; test: Example 13 crossover trial, combined vs separate carbachol and brimonidine drops: near visual acuity (Rosenbaum chart, Jaeger notation) (Table 13); type: in vivo, human; details: for NVA 1-h / NVA 2-h / NVA 4-h / NVA 8-h / NVA Pre-treatment: mean ± SD, ten subjects; for NVA Pre-treatment: before treatment
Description: as §1, §2

myopic presbyopes = details: Group 2
Description: (§3) The study evaluated in a blind study the efficacy of using of a parasympathomimetic drug of different concentrations together with an alpha agonist to create optically beneficial miosis to temporarily treat different types of presbyopia (emmetropic, myopic and hyperopic).
(§4) One hundred and seventy seven presbyopic subjects with a mean age of 49.8±3.9 years (range 41-57 years); 96 males and 81 females were recruited in this study. The participants in the study all gave written informed consent. […] During the study, the subjects were closely monitored and regularly asked to report on any ocular, systemic, or physiological reactions they experienced. […]
(§5) Initial pupil size and both near and distance visual acuities were documented before treatment and at 1, 2, 4, 8 and 10 hours after treatment at the same room illumination. Subjects were monitored and subjected to complete ocular examination including visual acuity evaluation and slit-lamp biomicroscopy after one week of treatment and monthly during the first three months to evaluate dosage, satisfaction, adverse effects and complications (for instance, retinal detachment, pigment dispersion, posterior synechiae and intraocular inflammation). […] Distance visual acuity was measured using the standard Snellen projector chart. […] Any adverse symptoms and subject satisfaction with near and distance vision were also monitored. […]

presbyopia subjects [3] = test: Example 8 dose range studies of carbachol and pilocarpine with or without brimonidine: near LogMAR visual acuity
Description: Dose range studies were performed for carbachol and pilocarpine.
Both Groups 1 and 2 received the same pre- and post-treatment work-up and measurements: Age, gender, initial pupil size, and near vision acuity (NVA) were documented. Subjects' NVA was measured post treatment at 1, 2, 4, and 8 hours, at the same room illumination Any adverse symptoms and subject satisfaction with near and distance vision were documented.

emmetropic presbyopes = details: Group 1
Description: as §3, §4, §5

presbyopic subjects = details: subjects receiving brimonidine drops
Description: One hundred and seventy seven presbyopic subjects with a mean age of 49.8±3.9 years (range 41-57 years); 96 males and 81 females were recruited in this study. The participants in the study all gave written informed consent. […] All subjects were in good physical and ocular health and completed a questionnaire to ascertain any contraindications for participation or predisposition to complications (e.g. heart or respiratory conditions, migraines, high myopia, ocular or systemic medications, or ocular surgeries). […] The examination screened for contraindications to the drugs, susceptibility to retinal detachment, ocular pathology, or peripheral retinal degeneration. […] During the study, the subjects were closely monitored and regularly asked to report on any ocular, systemic, or physiological reactions they experienced. […]
Initial pupil size and both near and distance visual acuities were documented before treatment and at 1, 2, 4, 8 and 10 hours after treatment at the same room illumination. Subjects were monitored and subjected to complete ocular examination including visual acuity evaluation and slit-lamp biomicroscopy after one week of treatment and monthly during the first three months to evaluate dosage, satisfaction, adverse effects and complications (for instance, retinal detachment, pigment dispersion, posterior synechiae and intraocular inflammation). […]

hyperopic presbyopes = test: Example 6 masked study: near visual acuity (Jaeger Eye Chart), Group 3, both eyes (Tables 9, 10)
Description: as §3, §4, §5

[4] = system: naturally emmetropic and presbyopic subjects; details: combination, separate, brimonidine alone, carbachol alone; FIG. 11
Description: Participants were volunteers selected at random.
The study used standard Snellen projector chart to measure distance visual acuity. Near visual acuity was assessed at 40 cm using Jaeger (J) Eye Chart. Statistical analysis was performed using the Student's t-test and p value of less than 0.05 was considered statistically significant. Data was expressed as mean, range, and standard deviation (SD).

[5] = system: patients suffering from presbyopia; test: Example 4 preliminary evaluation: near visual acuity after pilocarpine alone or with brimonidine (Table 1 dosages, FIG. 1); type: in vivo, human; details: individual patients
Description: Initially, 10 patients were selected for preliminary evaluation. […] All six dosages provided some (varying) initial improvement in visual acuity. However, the effect of formulations containing pilocarpine alone appears to wear out fairly quickly whereas it takes longer time for effects of formulations containing both drugs to wear out.

[6] = system: patients suffering from presbyopia; test: Table 11: pupil diameter after pilocarpine alone or pilocarpine plus brimonidine; type: in vivo, human; details: individual patients
presbyopia subjects [7] = test: Example 8 dose range studies: adverse symptoms, tolerability and satisfaction survey; type: in vivo, human
Description: The survey asked the patients whether they would use the drops again.

[8] = Stability of pilocarpine at neutral pH; type: physicochemical; details: needs about pH 5

## C[N+](C)(C)CCOC(N)=O [3% carbachol alone, carbachol]
[1]; 1 h post-treatment
  mean pupil size (PS): 2.8±0.3 mm
  PS 1-h: 2.8 ± 0.3 mm
[1]; 2 h post-treatment
  mean pupil size (PS): 3±0.3 mm
  PS 2-h: 3 ± 0.3 mm
[1]; 4 h post-treatment
  mean pupil size (PS): 3.5±0.3 mm
  PS 4-h: 3.5 ± 0.3 mm
[1]; 8 h post-treatment
  mean pupil size (PS): 4±0.3 mm
  PS 8-h: 4 ± 0.3 mm
[1]; before treatment (baseline)
  mean pupil size (PS): 4.3±0.5 mm
[1]; hours 1-8, FIG. 24
  mean pupil size (target): never achieved the target pupil size
[1]
  PS Pre-treatment: 4.3 ± 0.5 mm
[2]; 1 h post-treatment
  mean near visual acuity (NVA): 5.5 ± 1 J
  NVA 1-h: 5.5 ± 1 J
[2]; 2 h post-treatment
  mean near visual acuity (NVA): 5.9 ± 0.8 J
  NVA 2-h: 5.9 ± 0.8 J
[2]; 4 h post-treatment
  mean near visual acuity (NVA): 7 ± 1.2 J
  NVA 4-h: 7 ± 1.2 J
[2]; 8 h post-treatment
  mean near visual acuity (NVA): 7.5 ± 1 J
  NVA 8-h: 7.5 ± 1 J
[2]; before treatment (baseline)
  mean near visual acuity (NVA): 8.6 ± 1.5 J
[2]; hours 1-8, Snellen fraction, FIG. 25
  mean near visual acuity (NVA) (target): never achieved an NVA of ≥20/40
[2]
  NVA Pre-treatment: 8.6 ± 1.5 J

## Brc1c(NC2=NCCN2)ccc2nccnc12 [Brimonidine 0.2%, brimonidine]
Myopic presbyopes
  difference in mean NVA before treatment vs any time point after treatment: No statistically significant difference
[1]; P>0.05
  difference in mean PS before treatment vs any time point after treatment: no statistically significant difference
[1]; mainly first hour after instillation, light luminance, not statistically significant (P>0.05)
  miotic effect: mild miotic effect
[1]; 1 h post-treatment
  PS 1-h: 3.95 ± 0.5 mm
[1]; 2 h post-treatment
  PS 2-h: 4.2 ± 0.4 mm
[1]; 4 h post-treatment
  PS 4-h: 4.3 ± 0.5 mm
[1]; 8 h post-treatment
  PS 8-h: 4.3 ± 0.5 mm
[1]
  PS Pre-treatment: 4.3 ± 0.5 mm
[1]; with 50 ppm BAK
  effect on pupil size or NVA: virtually no effect
Presbyopia subjects [3]; in vivo
  synergy: synergistic with both carbachol and pilocarpine
Emmetropic presbyopes
  difference in mean NVA before treatment vs any time point after treatment: No statistically significant difference
Presbyopic subjects
  mild burning sensation, number of subjects: 10 subjects
[2]; P>0.05
  difference in mean NVA before treatment vs any time point after treatment: no statistically significant difference
[2]; 1 h post-treatment
  NVA 1-h: 7.7 ± 1.3 J
[2]; 2 h post-treatment
  NVA 2-h: 8.2 ± 1.3 J
[2]; 4 h post-treatment
  NVA 4-h: 8.5 ± 1.4 J
[2]; 8 h post-treatment
  NVA 8-h: 8.6 ± 1.5 J
[2]
  NVA Pre-treatment: 8.6 ± 1.5 J
Hyperopic presbyopes
  difference in mean NVA before treatment vs any time point after treatment: No statistically significant difference
[4]
  mean change in near visual acuity (J), comparison of all groups: the least

## CC[C@@H]1C(=O)OC[C@@H]1Cc1cncn1C [Pilo Alone]
[5]; Pilo 0.5%
  nVA(j) 1 hr: 3 j (2×) and 6 j and 5 j
  nVA(j) 2 hrs: 5 j (2×) and 3 j (2×)
  nVA(j) 4 hrs: 5 j (3×) and 3 j
[5]; Pilo 1%
  nVA(j) 1 hr: 3 j (2×) and 2 j and 8 j
  nVA(j) 2 hrs: 3 j and 2 j (2×) and 8 j
  nVA(j) 4 hrs: 5 j (2×) and 3 j and 10 j
[5]; before treatment
  Pre-Treatment Near Va: 6 j (4×) and 5 j (4×) and 8 j (2×) and 10 j and 3 j
[6]; Pilo 0.5%
  pupil 1 hr: 2.5 and 3.8 and 3 (2×)
  pupil 2 hrs: 3 and 4 and 2.5 and 3.3
  pupil 4 hrs: 3.3 and 4 and 3 and 4.2
[6]; Pilo 1%
  pupil 1 hr: 2.5 (2×) and 1.5 and 3
  pupil 2 hrs: 3 (2×) and 1.5 and 2.5
  pupil 4 hrs: 4 (2×) and 2.5 and 3
[6]; Pilo […]
  pupil 4 hrs: 4
[6]; before treatment, left eye
  Pre-Treatment Pupil Diam O.S.: 4 (2×) and 4.3 and 3.5 (2×) and 5 and 3.9 and 3 and 4.5 (3×) and 5.4
[6]; before treatment, right eye
  Pre-Treatment Pupil Diam O.D.: 4 (3×) and 3.5 (2×) and 5 and 4.3 and 3 and 4.5 (3×) and 5.5

## C[N+](C)(C)CCOC(N)=O [carbachol]
Presbyopia subjects [3]; in vivo
  duration: 8 h
Presbyopia subjects [7]; over seven days, FIG. 15
  tolerability / discomfort vs carbachol concentration: caused some increased discomfort

## CC[C@@H]1C(=O)OC[C@@H]1Cc1cncn1C [pilocarpine]
[8]
  stability at neutral pH: unstable at neutral pH
Presbyopia subjects [3]; pilocarpine vs carbachol
  onset of effect: more immediate effect
Presbyopia subjects [3]; pilocarpine vs carbachol, in words
  duration: shorter duration
Presbyopia subjects [7]; in vivo
  burning: burned
